Values joined by “and” are separate entries in the source; they are usually repeats but may differ in a detail not shown here. Equal values may be shown once.
Key:
Escherichia coli = test: Growth Inhibitor Test (zone of inhibition / kill zone on agar); format: cell-based; settings: E. coli, Standard Methods Agar, 48 hours at 32.0° C; heading says test organism died, assay invalid; Sodium Hypochlorite @ 100 ppm on paper disc
Source text: (§1) Test Scope: The Growth Inhibitor Test was used to determine the toxicity of a rubber band containing zinc pyrithione. Any presence of toxic residues in the test material (rubber band) will inhibit bacterial growth in the agar medium. A zone of inhibition or no growth of test organism around the test material indicates the presence of toxic residues in the test material. The intensity of inhibition is indicative of the concentration of the toxic agent.
(§2) Test Objective: Four (4) test organisms were used in this assay to determine toxicity. Each organism was suspended in specific agar medium, incubated at 35° C. for 48 hours, and then read to determine growth or no growth of test organism. Each test organism was grown individually in a Petri plate and the test material was planted unto the agar plate to determine the outcome. If no toxic residues were present in the test material, then the test bacteria grew around and under the test medium producing a “lawn effect.” If inhibitory substances were present in the test material, it would diffuse into the agar medium and prevent the growth of bacterial in the medium. The larger the zone of inhibition, the higher the concentration of toxic substances.
(§3) Test Organisms: The following four (4) organisms were employed: Escherichia coli, Staphylococcus aureus, Pseudomonas aeruginosa, and Pasteurella multocida. Each test organism's concentration was estimated to be 100,000 cfu to 1,000,000 cfu per milliliter.
(§4) Materials used included: 1. Baird Parker Agar for Staphylococcus aureus; 2. Standard Methods Agar for E. coli and Pseudomonas aeruginosa; 3. Tryptic Soy Agar for Pasteurella multocida; 4. 100 ppm chlorinated water to serve as a positive control; 5. Distilled water to serve as the negative control; 6. Quebec Colony Counter; 7. Incubator at 32.0 C; 8. Petri plates (85 mm diameter); 9. Vernier calibrators; 10.

Pseudomonas aeruginosa [1] = test: as above; format: cell-based; settings: Standard Methods Agar, 48 hours at 32.0° C, rubber with 1000 ppm zinc pyrithione, Sodium Hypochlorite @ 100 ppm on paper disc
Source text: as §1, §2, §3, §4

Staphylococcus aureus = test: as above; format: cell-based; settings: Baird Parker Agar, 48 hours at 32.0° C, rubber with 1000 ppm zinc pyrithione, Sodium Hypochlorite @ 100 ppm on paper disc
Source text: as §1, §2, §3, §4

Pasteurella multocida = test: as above; format: cell-based; settings: Tryptic Soy Agar, 48 hours at 32.0° C, rubber with 1000 ppm zinc pyrithione, Sodium Hypochlorite @ 100 ppm on paper disc
Source text: as §1, §2, §3, §4

Pseudomonas aeruginosa [2] = settings: it has been reported; cited from earlier work
[3] = test system: all of the organisms tested (Escherichia coli, Staphylococcus aureus, Pseudomonas aeruginosa, Pasteurella multocida); test: Growth Inhibitor Test, overall conclusion; format: cell-based; settings: versus sodium hypochlorite at 100 ppm disinfection concentration
Source text: as §1, §2
Test Organisms: The following four (4) organisms were employed: Escherichia coli, Staphylococcus aureus, Pseudomonas aeruginosa, and Pasteurella multocida. […]

With `OCl` [Sodium Hypochlorite] the “zone of inhibition or kill zone” value (Escherichia coli) was 1.6 cm and 1.4 cm, the kill zone (Pseudomonas aeruginosa [1]) was 3.1 cm and 3.0 cm and the “zone of inhibition or kill zone” value (Staphylococcus aureus) was 3.0 cm and 2.5 cm. The “zone of inhibition or kill zone” value (Pasteurella multocida) was 3.5 cm and 3.2 cm.

In the case of `Oc1cc(Cl)ccc1Oc1ccc(Cl)cc1Cl` [triclosan], the “efficacy against Pseudomonas aeruginosa” value (Pseudomonas aeruginosa [2]) is given as “little or no efficacy”.

In the case of `[O-][n+]1ccccc1[S-].[O-][n+]1ccccc1[S-].[Zn+2]` [zinc pyrithione, zinc 2-pyridinethiol-n-oxide], the “toxicity compared with sodium hypochlorite (similar kill zones)” value [3] is reported as “equal to the potency of sodium hypochlorite at 100 ppm”.

From patent US20080248076A1, “ANTIMICROBIAL RUBBER BANDS” (priority 2007, published 2008)
